In patent publication US6472395B1, “Agent for use in transplantation” (Leif J. I. Lundblad, priority 1999, dated 2002):
Entries after “also recorded” stand apart in the source; their conditions may differ.

Columns and labels:
rat livers [1] = experiment: Ischemia/reperfusion in rat liver perfusion system, removal of lactate, comparison with known protective compounds; conditions: 5 mg added to the perfusate before ischemia; FIG. 3
Description: A third experiment was carried out, wherein rat livers were taken out and were subjected to perfusion in a heart/lung machine. The perfusion solution is blood with an implanted liver. When the system has reached equilibrium the perfusion flow is shut off and 10 to 20 minutes later the perfusion flow is turned on again, which is called reperfusion (ischemia). A known toxic effect of reperfusion (ischemia/infarction)(tissue damage due to oxidative stress) is the reduced capacity to remove lactate from the perfusate.

rat livers [2] = experiment: TPA toxicity in rat liver perfusion, lactate and bile flow
Description: (§1) A series of experiments were carried out with rat livers in a heart/lung machine (FIGS. 4 and 5).
(§2) Lactate was added to a control liver perfusion and the bile flow and the lactate level were measured as a function of time. Bile flow is the clinical parameter for liver function, the higher bile flow the better liver function. The results from controls are shown in the upper diagrams of FIGS. 4 and 5. A normal liver down-regulates the lactate very rapidly to in vivo levels (3-5 mM). The normal bile flow in controls is represented by the dotted line.
In the next experiment (FIG. 5) a very toxic compound, triphorbolester (TPA) was added to the perfusion fluid. TPA is an inducer of inflammation and a very potent tumour promoter.
Then the same experiment was repeated under the same conditions except that 2 mg B220 also was added to the perfusion. From said results it can be seen that when B220 is present in the system the toxic effects of TPA were prevented and the values of lactate and bile flow were restored (and even better as compared to the controls in FIG. 5, upper diagram). […] The mode of action resides in a blocking of hyperplasia/inflammation.

rats = experiment: In vivo test of rats with 2,7-dNF, livers analysed for 8-OH-dG; parameters: species or system rat; conditions: oral in corn oil, B220 at −48 h, −24 h and +6 h relative to 2,7-dNF dose; FIG. 2
Description: In another experiment rats were tested in vivo and the livers analyzed for 8-OH-dG. In this experiment there were three test groups. One control group, one group to which 2,7-dinitrofluorene (2,7-dNF), which is a well-known carcinogen found in diesel exhaust and inducer of 8-OH-dG, was orally administered and one group to which both 2,7-dNF and a compound to be used as an agent according to the present invention (B220) were administered. B220 was administered at three time points in relation to the 2,7-dNF dose, viz. −48 h, −24 h and +6 h. All doses were administered orally with the substance in corn oil. Control only received carrier. Oxidation of DNA (oxidation of guanine, 8-OH-dG) was measured in the liver. 8-OH-dG is a promutagenic event correlated to several different types of diseases, for instance cancer, diabetes and infectious diseases.
The results of the experiment can be seen from the enclosed FIG. 2.

[3] = Toxicity in vivo (general statement)
[4] = Long time in vivo experiments on tumour promoter effect of TPA
rat livers [5] = experiment: Reperfusion (10 min shut-off) of rat liver in heart/lung machine, lactate and bile flow over time; conditions: 2 mg B220 in the system, FIG. 4 lower diagram
Description: as §1, §2
In the next experiment a heart/lung machine was shut off for 10 minutes and then it was started again to induce oxidative stress (reperfusion). The amount of lactate, which is a measurement of tissue damage, was determined as a function of time and the bile flow as a function of time was also determined as an indicator of toxic effect. The results are shown in FIG. 4, middle diagram, indicating a high level of lactate (solid curve) and a reduced bile flow (dotted curve) after reperfusion. Both these effects are markers for tissue damage.
In the next experiment the same reperfusion experiment was carried out with B220 present in the system in an amount of 2 mg.

rat liver [6] = experiment: Donor pretreatment, liver stored 24 h at +4° C. then isolated perfusion, bile flow and lactate; type: in vivo; conditions: pretreatment of B220 to the donor
Description: The same experiment was repeated but instead the temperature applied during transport of human livers(+4° C.) was used. The livers were stored for 24 h before installation in the perfusion system. This should be compared to 12 h which is the maximum for human liver transplantation. […] The experiment was identical to what is shown in FIG. 6 except for time and temperature used.

rat liver [7] = experiment: Donor pretreatment, liver stored 2 h at +30° C. then isolated perfusion, total bile flow; type: in vivo; conditions: single dose B220 i.p. to donor 24 h prior to surgery; liver 2 h at +30° C.; FIG. 6
Description: In a further experiment rat liver was tested in isolated perfusion where B220 was administered to the donor. The donors were administered a single dose of B220 24 h before the livers were surgically removed and kept at +30° C. for 2 h before set into perfusion (group 3). (There was a “short” storage (2 h) of rat liver at a high temperature (+30° C.) in order to simulate transplantation). The second group was not administered B220 and the first group was controls directly set into perfusion. […] “Transport” and reperfusion gives a massive oxidative stress which leads to tissue damage.
In FIG. 6 the total bile flow was an indicator of tissue damage induced by transplantation. The controls were directly “transplanted” to the perfusion system while the second group of livers was kept for 2 h at 30° C. before “transplantation”. The third group represents the 2 h at 30° C. treatment but with addition of B220 to the donors.

[8] = 2 mg B220 added together with TPA, FIG. 5 lower diagram
[9] = TPA alone added to the perfusion fluid, FIG. 5 middle diagram

Description for liver from rat: In order to investigate the agents to be used in transplantation according to the present invention a liver from rat was tested in a perfusion solution in a heart/lung machine. In order to measure organ damage the amount of 8-OH-dG in the liver was analysed. As an inducer of 8-OH-dG dimethylsulphoxide (DMSO) was added to a perfusion solution.

CC(=O)Oc1ccccc1C(=O)O [ASA, acetyl salicylic acid]
reduction of lactate in perfusate after ischemia (protection) (rat livers [1]): did not give any protective effects

Cc1cc2nc3c4ccccc4n(CCN(C)C)c3nc2cc1C [B220]
reduction of lactate in perfusate after ischemia (protection) (rat livers [1]): significant reduction of lactate; also recorded: statistically significant protection | bile flow with TPA in perfusion (rat livers [2]; [8]): restored | lactate with TPA in perfusion (rat livers [2]; [8]): restored | 8-OH-dG in the liver (oxidation of DNA) (rats): protects against 2,7-dNF-induced formation of 8-OH-dG; also recorded: reduces 8-OH-dG to below the control values | toxicity [3]: practically non-toxic | tumour promoter effect of TPA [4]: can stop the very potent tumour promoter effect of TPA | bile flow as a function of time after reperfusion (rat livers [5]): rapidly accommodate to normal values; also recorded: better than in the controls | lactate amount as a function of time after reperfusion (rat livers [5]): rapidly accommodate to normal values; also recorded: better than in the controls | bile flow (rat liver [6]; FIG. 7): the bile flow was restored | lactate levels (rat liver [6]; FIG. 8): same protective effect on lactate levels | total bile flow during the perfusion (rat liver [7]): the toxic effects are eliminated; also recorded: completely restored the bile flow value to that of the control samples

C[S+](C)[O-] [DMSO, dimethylsulphoxide, reference compound]
8-OH-dG in the liver (liver from rat): significant increase of 8-OH-dG

CCCCCCCCCCCCCC(=O)O[C@@H]1[C@@H](C)[C@@]2(O)[C@@H](C=C(CO)C[C@]3(O)C(=O)C(C)=C[C@@H]23)[C@@H]2C(C)(C)[C@]12OC(C)=O [TPA, triphorbolester, reference compound]
capacity to produce bile (rat livers [2]; [9]): very restricted capacity to produce bile | capacity to reduce lactate (rat livers [2]; [9]): very limited capacity to reduce lactate
